This test concerns C57BL/KsJ-db/db mice. As to the kind of experiment: Blood sugar and triglycerides lowering activity in db/db mice, oral gavage daily for 6 days. Format: in vivo. The settings on record: male db/db mice; for Maximum reduction in blood glucose level (%) / Triglyceride lowering (%): oral gavage daily for 6 days. The text has this:
Mutation in colonies of laboratory animals and different sensitivities to dietary regimens have made the development of animal models with non-insulin dependent diabetes associated with obesity and insulin resistance possible. Genetic models such as db/db and ob/ob (See Diabetes, (1982) 31(1) : 1- 6) in mice and fa/fa and zucker rats have been developed by the various laboratories for understanding the pathophysiology of disease and testing the efficacy of new antidiabetic compounds (Diabetes, (1983) 32: 830-838; Annu. Rep. Sankyo Res. Lab. (1994) 46 : 1-57). The homozygous animals, C57 BL/KsJ-db/db mice developed by Jackson Laboratory, US, are obese. hyperglycemic, hyperinsulinemic and insulin resistant (J. Clin. Invest., (1990) 85 : 962-967), whereas heterozygous are lean and normoglycemic. In db/db model, mouse progressively develops insulinopenia with age, a feature commonly observed in late stages of human type II diabetes when blood sugar levels are insufficiently controlled. The state of pancreas and its course vary according to the models. Since this model resembles that of type II diabetes mellitus, the compounds of the present invention were tested for blood sugar and triglycerides lowering activities.
Male C57BL/KsJ-db/db mice of 8 to 14 weeks age, having body weight range of 35 to 60 grams, procured from the Jackson Laboraotory, USA, were used in the experiment. The mice were provided with standard feed (National Institute of Nutrition, Hyderabad, India) and acidified water, ad libitum. The animals having more than 300 mg / dl blood sugar were used for testing. The number of animals in each group was 4.
The random blood sugar and triglyceride levels were measured by collecting blood (100 µl) through orbital sinus, using heparinised capillary in tubes containing EDTA which was centrifuged to obtain plasma. The plasma glucose and triglycerides levels were measured spectrometrically, by glucose oxidase and glycerol-3-PO4 oxidase/peroxidase enzyme (Dr. Reddy's Lab. Diagnostic Division Kits, Hyderabad, India) methods respectively. On 6th day the blood samples were collected one hour after administration of test compounds / vehicle for assessing the biological activity.
Test compounds were suspended on 0.25 % carboxymethyl cellulose and administered to test group at a dose of 1 mg to 100 mg / kg through oral gavage daily for 6 days. The control group received vehicle (dose 10 ml / kg).

Each structure is given as a SMILES string.

Turning to `Cc1c(C)c2c(c(C)c1O)CCC(C)(COc1ccc(CC3SC(=O)NC3=O)cc1)O2` (stereo not drawn) [Troglitazone, reference compound], where the note is “100 mg / kg, daily dose, on 6th day”, the “reduction in random blood sugar level” value came to 28%. Consider `CN1C(=O)c2ccccc2N(C)C1COc1ccc(CC2SC(=O)NC2=O)cc1` (stereo not drawn) [Example 11, 5-[4-[[1,3-Dimethyl-4-oxo-1,2,3,4-tetrahydro-2-quinazolinyl]methoxy]phenylmethyl) thiazolidin-2,4-dione], for which, under “dose 1 mg/kg/day”, the “Maximum reduction in blood glucose level (%)” value (shortened to “Maximum reduction … (%)”) is on record as 34% and the “Triglyceride lowering (%)” value is recorded as 28%. Regarding `O=C1NC(=O)C(Cc2ccc(OCC3NC(=O)c4ccccc4O3)cc2)S1` (stereo not drawn) [Example 3, 5-[4-1[[4-Oxo-3,4-dihydro-(2H)-1,3-benzoxazine-2-yl]methoxy]phenylmethyl]thiazotidin-2,4-dione], where the note is “dose 10 mg/kg/day”, the “Maximum reduction … (%)” value came to 41% and the “Triglyceride lowering (%)” value is recorded as 48%. As for `CN1C(=O)c2ccccc2NC1COc1ccc(CC2SC(=O)NC2=O)cc1` (stereo not drawn) [Example 12, 5-[4-[[3-Methyl-4-oxo-1,2,3,4-tetrahydro-2-quinazolinyl]methoxy]phenylmethyl] thiazolidin-2,4-dione], for the setting “dose 3 mg/kg/day”, the “Maximum reduction … (%)” value is given as 55% and the “Triglyceride lowering (%)” value came out at 35%. For `CN1C(=O)c2ccccc2OC1COc1ccc(CC2SC(=O)NC2=O)cc1` (stereo not drawn) [Example 4, 5-[4-[[3-Methyl-4-oxo-3,4-dihydro-(2H)-1,3-benzoxazine-2-yl]methoxy]phenylmethyl] thiazolidin-2,4-dione], under “dose 10 mg/kg/day”, the “Maximum reduction … (%)” value worked out at 48% and the “Triglyceride lowering (%)” value was determined as 42%.

Source of the values: patent publication EP1036075B1, “SUBSTITUTED THIAZOLIDINEDIONE AND OXAZOLIDINEDIONE HAVING ANTIDIABETIC, HYPOLIPIDEMIA AND ANTIHYPERTENSIVE PROPERTIES” (Dr. Reddy's Laboratories Ltd., priority 1997, dated 1998).
